Biological target: T1, SIRT1 (Homo sapiens, UniProt Q96EB6)
T1 sequence (Q96EB6 2-747): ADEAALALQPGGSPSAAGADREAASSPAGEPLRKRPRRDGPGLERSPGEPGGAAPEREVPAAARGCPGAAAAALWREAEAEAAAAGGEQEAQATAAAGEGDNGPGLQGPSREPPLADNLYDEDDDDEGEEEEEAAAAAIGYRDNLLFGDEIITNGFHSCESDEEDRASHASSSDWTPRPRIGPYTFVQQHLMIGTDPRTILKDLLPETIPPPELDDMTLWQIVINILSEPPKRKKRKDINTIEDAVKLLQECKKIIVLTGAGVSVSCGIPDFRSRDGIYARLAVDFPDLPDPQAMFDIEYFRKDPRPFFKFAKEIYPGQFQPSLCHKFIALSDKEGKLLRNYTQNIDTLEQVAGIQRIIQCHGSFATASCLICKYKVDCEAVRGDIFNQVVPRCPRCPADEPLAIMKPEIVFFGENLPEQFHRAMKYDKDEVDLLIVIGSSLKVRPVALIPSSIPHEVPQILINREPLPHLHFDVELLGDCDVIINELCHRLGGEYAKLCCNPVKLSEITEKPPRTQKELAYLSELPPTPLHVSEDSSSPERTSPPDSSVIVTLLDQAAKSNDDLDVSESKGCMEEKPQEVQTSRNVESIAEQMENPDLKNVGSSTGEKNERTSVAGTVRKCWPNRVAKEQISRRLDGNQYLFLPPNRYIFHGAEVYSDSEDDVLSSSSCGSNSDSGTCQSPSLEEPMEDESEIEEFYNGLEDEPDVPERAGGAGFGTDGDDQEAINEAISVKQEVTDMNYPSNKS
Experiment: SensoLyte […] FRET fluorimetric SIRT1 enzyme activity assay kit
Format: biochemical

SMILES | IC50
CC(C)(C)c1cc(C=C2C(=O)NC(=S)NC2=O)cc(C(C)(C)C)c1O [MHY2256, 5-(3,5-di-tert-butyl-4-hydroxybenzylidene)-2-thioxodihydropyrimidine-4,6(1H,5H)-dione] | 1.89 µM
CC(C(=O)Nc1cccc(/N=C/c2c(O)ccc3ccccc23)c1)c1ccccc1 (centres unmarked) [salermide] | 4.8 µM
